# How the values were obtained:
# Settings in all cases: 1 uM
# GCN2 (Kin.Dom.2, S808G) = GCN2 (Kin.Dom.2, S808G) (Homo sapiens (Human), UniProt Q9P2K8, S808G); test: KINOMEscan; format: binding
# p38-gamma = p38-gamma (Homo sapiens (Human), UniProt P53778); test: KINOMEscan; format: binding
# MKNK1 = MKNK1 (Homo sapiens (Human), UniProt Q9BUB5); test: KINOMEscan; format: binding
# NEK4 = NEK4 (Homo sapiens (Human), UniProt P51957); test: KINOMEscan; format: binding
# ULK1 = ULK1 (Homo sapiens (Human), UniProt O75385); test: KINOMEscan; format: binding
# NDR2 = NDR2 (Homo sapiens (Human), UniProt Q9Y2H1); test: KINOMEscan; format: binding
# KIT (V559D) = KIT (V559D) (Homo sapiens (Human), UniProt P10721, V559D); test: KINOMEscan; format: binding
# RIPK5 = RIPK5 (Homo sapiens (Human), UniProt Q6XUX3); test: KINOMEscan; format: binding
# Chain of RIPK5 (Q6XUX3 whole entry): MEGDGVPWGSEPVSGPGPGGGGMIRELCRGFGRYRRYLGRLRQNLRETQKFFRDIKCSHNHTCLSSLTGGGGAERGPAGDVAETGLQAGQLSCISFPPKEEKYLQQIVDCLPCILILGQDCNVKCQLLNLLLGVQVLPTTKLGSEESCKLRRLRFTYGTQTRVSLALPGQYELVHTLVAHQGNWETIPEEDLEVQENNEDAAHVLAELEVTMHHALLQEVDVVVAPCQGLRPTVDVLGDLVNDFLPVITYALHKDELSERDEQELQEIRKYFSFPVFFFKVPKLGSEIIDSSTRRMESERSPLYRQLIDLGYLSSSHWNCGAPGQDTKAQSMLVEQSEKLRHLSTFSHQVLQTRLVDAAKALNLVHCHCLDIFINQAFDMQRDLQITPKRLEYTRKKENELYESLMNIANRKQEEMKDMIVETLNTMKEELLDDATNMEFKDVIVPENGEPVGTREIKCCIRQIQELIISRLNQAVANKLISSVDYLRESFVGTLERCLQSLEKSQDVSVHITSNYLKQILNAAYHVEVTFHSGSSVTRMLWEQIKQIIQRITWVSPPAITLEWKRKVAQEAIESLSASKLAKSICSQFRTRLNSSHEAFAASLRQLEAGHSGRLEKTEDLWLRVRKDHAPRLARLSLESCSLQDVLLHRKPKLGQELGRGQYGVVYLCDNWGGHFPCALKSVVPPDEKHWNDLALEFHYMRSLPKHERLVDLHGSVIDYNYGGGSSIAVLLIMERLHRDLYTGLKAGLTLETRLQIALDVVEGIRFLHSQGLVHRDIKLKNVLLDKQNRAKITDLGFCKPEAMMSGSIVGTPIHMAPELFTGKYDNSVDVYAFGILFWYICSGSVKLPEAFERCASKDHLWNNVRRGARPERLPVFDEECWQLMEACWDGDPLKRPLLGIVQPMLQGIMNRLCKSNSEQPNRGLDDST
# PRKG1 = PRKG1 (Homo sapiens (Human), UniProt Q13976); test: KINOMEscan; format: binding
# ZAP70 = ZAP70 (Homo sapiens (Human), UniProt P43403); test: KINOMEscan; format: binding
# FLT3 (K663Q) = FLT3 (K663Q) (Homo sapiens (Human), UniProt P36888, K663Q); test: KINOMEscan; format: binding
# MET (M1250T) = MET (M1250T) (Homo sapiens (Human), UniProt P08581, M1250T); test: KINOMEscan; format: binding
# Chain of MET (M1250T) (P08581 25-1390 M1250T): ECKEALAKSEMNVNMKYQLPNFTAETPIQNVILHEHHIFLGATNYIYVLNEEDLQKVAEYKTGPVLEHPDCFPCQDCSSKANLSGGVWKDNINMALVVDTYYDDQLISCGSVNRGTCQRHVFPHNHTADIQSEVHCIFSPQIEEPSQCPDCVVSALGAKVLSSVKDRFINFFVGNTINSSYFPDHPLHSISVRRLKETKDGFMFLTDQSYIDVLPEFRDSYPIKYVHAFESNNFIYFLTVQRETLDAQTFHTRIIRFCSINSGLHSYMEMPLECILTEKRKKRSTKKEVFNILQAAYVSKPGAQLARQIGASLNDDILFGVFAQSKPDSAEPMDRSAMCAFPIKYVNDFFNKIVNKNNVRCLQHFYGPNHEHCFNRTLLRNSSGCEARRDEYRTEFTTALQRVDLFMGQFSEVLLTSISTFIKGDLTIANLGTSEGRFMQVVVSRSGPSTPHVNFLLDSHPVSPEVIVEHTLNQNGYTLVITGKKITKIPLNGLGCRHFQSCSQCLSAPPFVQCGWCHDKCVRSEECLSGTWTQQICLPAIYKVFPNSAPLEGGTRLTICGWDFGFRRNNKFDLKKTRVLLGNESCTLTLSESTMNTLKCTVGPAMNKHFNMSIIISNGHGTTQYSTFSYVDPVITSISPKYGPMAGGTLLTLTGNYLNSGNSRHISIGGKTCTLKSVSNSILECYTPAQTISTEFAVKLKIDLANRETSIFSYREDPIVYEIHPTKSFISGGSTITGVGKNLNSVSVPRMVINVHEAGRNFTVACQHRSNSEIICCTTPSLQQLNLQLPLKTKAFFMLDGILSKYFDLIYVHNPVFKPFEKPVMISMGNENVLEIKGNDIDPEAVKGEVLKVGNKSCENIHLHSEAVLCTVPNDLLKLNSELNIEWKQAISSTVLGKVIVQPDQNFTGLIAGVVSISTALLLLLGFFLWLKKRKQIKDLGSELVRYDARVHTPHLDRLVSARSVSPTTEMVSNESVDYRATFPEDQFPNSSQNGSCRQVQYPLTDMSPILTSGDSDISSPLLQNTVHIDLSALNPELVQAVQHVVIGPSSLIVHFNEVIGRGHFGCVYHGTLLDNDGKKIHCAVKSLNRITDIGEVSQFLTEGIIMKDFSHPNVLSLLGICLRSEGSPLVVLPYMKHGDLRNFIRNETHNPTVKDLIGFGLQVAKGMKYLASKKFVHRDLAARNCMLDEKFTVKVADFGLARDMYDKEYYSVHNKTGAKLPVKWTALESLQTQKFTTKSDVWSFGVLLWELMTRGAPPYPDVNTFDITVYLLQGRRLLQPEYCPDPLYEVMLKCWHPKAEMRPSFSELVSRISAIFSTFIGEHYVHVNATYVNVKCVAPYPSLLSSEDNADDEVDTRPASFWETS
# INSRR = INSRR (Homo sapiens (Human), UniProt P14616); test: KINOMEscan; format: binding
# LRRK2 = LRRK2 (Homo sapiens (Human), UniProt Q5S007); test: KINOMEscan; format: binding
# PLK4 = PLK4 (Homo sapiens (Human), UniProt O00444); test: KINOMEscan; format: binding
# LCK = LCK (Homo sapiens (Human), UniProt P06239); test: KINOMEscan; format: binding
# RIPK2 = RIPK2 (Homo sapiens (Human), UniProt O43353); test: KINOMEscan; format: binding
# PKNB (M. tuberculosis) = PKNB (M. tuberculosis) (Mycobacterium tuberculosis (strain ATCC 25618 / H37Rv), UniProt P9WI81)
# ALK = ALK (Homo sapiens (Human), UniProt Q9UM73); test: KINOMEscan; format: binding
# TNK2 = TNK2 (Homo sapiens (Human), UniProt Q07912); test: KINOMEscan; format: binding
# BRAF = BRAF (Homo sapiens (Human), UniProt P15056); test: KINOMEscan; format: binding
# HIPK3 = HIPK3 (Homo sapiens (Human), UniProt Q9H422); test: KINOMEscan; format: binding
# ROCK2 = ROCK2 (Homo sapiens (Human), UniProt O75116); test: KINOMEscan; format: binding
# TESK1 = TESK1 (Homo sapiens (Human), UniProt Q15569); test: KINOMEscan; format: binding
# Chain of TESK1 (Q15569 whole entry): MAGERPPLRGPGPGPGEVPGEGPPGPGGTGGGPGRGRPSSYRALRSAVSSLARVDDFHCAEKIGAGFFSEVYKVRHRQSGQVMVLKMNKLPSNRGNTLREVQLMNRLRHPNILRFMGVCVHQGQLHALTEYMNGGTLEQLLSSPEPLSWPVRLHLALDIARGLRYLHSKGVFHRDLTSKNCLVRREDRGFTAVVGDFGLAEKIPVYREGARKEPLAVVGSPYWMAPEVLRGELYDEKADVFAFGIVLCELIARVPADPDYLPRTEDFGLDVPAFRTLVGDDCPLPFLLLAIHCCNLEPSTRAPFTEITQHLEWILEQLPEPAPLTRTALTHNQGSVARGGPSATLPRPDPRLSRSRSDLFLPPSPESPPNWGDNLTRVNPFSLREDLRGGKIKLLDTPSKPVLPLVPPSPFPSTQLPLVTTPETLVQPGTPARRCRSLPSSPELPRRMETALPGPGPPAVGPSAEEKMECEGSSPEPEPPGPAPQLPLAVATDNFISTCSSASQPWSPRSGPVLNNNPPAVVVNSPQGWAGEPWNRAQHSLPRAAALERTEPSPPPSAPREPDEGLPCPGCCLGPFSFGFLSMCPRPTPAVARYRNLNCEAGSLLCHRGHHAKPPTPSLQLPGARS
# DMPK2 = DMPK2 (Homo sapiens (Human), UniProt Q6DT37); test: KINOMEscan; format: binding
# S6K1 = S6K1 (Homo sapiens (Human), UniProt P23443); test: KINOMEscan; format: binding
# AKT2 = AKT2 (Homo sapiens (Human), UniProt P31751); test: KINOMEscan; format: binding
# DRAK1 = DRAK1 (Homo sapiens (Human), UniProt Q9UEE5); test: KINOMEscan; format: binding
# Chain of DRAK1 (Q9UEE5 whole entry): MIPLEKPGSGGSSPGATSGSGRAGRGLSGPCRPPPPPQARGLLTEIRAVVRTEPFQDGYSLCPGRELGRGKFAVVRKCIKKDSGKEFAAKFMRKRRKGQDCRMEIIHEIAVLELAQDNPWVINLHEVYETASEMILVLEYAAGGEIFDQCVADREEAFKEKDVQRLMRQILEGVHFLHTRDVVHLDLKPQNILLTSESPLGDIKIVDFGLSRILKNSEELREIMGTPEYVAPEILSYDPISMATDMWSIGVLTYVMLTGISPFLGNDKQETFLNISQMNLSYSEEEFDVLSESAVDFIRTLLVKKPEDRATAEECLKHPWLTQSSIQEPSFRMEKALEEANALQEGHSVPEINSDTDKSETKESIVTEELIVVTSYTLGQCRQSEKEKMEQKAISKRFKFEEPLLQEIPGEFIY
# PYK2 = PYK2 (Homo sapiens (Human), UniProt Q14289); test: KINOMEscan; format: binding
# AMPK-alpha1 = AMPK-alpha1 (Homo sapiens (Human), UniProt Q13131); test: KINOMEscan; format: binding
# TLK2 = TLK2 (Homo sapiens (Human), UniProt Q86UE8); test: KINOMEscan; format: binding
# [1] = target: RSK3 (Kin.Dom.2-C-terminal) (Homo sapiens (Human), UniProt Q15349); test: KINOMEscan; format: binding
# YANK2 = YANK2 (Homo sapiens (Human), UniProt Q9NY57); test: KINOMEscan; format: binding
# Chain of YANK2 (Q9NY57 whole entry): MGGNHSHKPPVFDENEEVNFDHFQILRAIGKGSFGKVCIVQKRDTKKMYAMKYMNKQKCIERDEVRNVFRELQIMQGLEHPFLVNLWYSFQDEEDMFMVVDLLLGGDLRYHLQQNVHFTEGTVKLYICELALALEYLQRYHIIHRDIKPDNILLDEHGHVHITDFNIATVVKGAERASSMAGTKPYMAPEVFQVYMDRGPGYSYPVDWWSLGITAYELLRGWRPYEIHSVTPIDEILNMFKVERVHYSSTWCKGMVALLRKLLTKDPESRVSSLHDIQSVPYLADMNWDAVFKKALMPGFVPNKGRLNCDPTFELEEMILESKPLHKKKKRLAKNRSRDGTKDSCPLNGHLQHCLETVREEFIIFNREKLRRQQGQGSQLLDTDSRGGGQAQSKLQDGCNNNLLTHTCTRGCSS
# TTK = TTK (Homo sapiens (Human), UniProt P33981); test: KINOMEscan; format: binding
# [2] = target: ABL1 (M351T)-phosphorylated (Homo sapiens (Human), UniProt P00519, M351T); test: KINOMEscan; format: binding
# DDR2 = DDR2 (Homo sapiens (Human), UniProt Q16832); test: KINOMEscan; format: binding
# PRKR = PRKR (Homo sapiens (Human), UniProt P19525); test: KINOMEscan; format: binding
# JNK1 = JNK1 (Homo sapiens (Human), UniProt P45983); test: KINOMEscan; format: binding
# SRPK3 = SRPK3 (Homo sapiens (Human), UniProt Q9UPE1); test: KINOMEscan; format: binding
# CSNK1A1 = CSNK1A1 (Homo sapiens (Human), UniProt P48729); test: KINOMEscan; format: binding
# Chain of MKNK1 (Q9BUB5 whole entry): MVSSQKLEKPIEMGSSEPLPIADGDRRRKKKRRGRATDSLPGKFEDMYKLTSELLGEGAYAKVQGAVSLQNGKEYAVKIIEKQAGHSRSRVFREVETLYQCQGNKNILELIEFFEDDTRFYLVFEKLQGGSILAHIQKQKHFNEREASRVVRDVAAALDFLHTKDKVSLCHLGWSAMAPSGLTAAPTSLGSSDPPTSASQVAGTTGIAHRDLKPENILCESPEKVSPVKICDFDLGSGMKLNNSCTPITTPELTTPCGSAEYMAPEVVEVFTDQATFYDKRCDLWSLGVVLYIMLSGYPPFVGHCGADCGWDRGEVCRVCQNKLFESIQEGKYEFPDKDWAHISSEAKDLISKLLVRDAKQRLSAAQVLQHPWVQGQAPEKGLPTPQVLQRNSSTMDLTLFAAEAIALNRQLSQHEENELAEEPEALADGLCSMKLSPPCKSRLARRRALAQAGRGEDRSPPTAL
# Chain of GCN2 (Kin.Dom.2, S808G) (Q9P2K8 590-1001 S808G): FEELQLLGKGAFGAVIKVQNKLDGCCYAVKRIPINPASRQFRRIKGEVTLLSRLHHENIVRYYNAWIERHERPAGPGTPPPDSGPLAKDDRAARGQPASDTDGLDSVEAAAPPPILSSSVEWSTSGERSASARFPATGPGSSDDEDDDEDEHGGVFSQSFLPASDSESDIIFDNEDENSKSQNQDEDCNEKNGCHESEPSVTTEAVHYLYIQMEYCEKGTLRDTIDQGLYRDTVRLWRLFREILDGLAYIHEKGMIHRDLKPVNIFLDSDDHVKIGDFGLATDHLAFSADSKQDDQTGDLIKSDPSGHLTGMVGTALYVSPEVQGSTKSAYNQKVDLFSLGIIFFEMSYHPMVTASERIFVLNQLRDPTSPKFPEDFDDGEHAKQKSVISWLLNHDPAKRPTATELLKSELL
# Chain of p38-gamma (P53778 whole entry): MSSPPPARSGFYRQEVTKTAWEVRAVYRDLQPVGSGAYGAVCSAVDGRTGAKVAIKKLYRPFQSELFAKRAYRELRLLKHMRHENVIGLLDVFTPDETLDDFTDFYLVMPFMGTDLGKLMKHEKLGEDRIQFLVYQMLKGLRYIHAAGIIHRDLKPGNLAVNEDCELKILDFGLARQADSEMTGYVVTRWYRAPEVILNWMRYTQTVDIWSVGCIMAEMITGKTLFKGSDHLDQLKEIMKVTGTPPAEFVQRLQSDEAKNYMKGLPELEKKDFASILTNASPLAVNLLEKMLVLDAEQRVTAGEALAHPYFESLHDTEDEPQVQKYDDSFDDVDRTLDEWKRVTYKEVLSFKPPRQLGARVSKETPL
smiles,measurement,setting,value
COc1ccc(N2C(=O)N(c3c(C)cccc3C)Cc3cnc(Nc4ccc(N5CCN(C)CC5)cc4)nc32)c(OC)c1 [HG-11-136-01],"KINOMEscan GCN2 (Kin.Dom.2, S808G)","GCN2 (Kin.Dom.2, S808G)",0.75
same,KINOMEscan p38-gamma,p38-gamma,91
same,KINOMEscan MKNK1,MKNK1,85
same,KINOMEscan NEK4,NEK4,100
same,KINOMEscan ULK1,ULK1,3.2
same,KINOMEscan NDR2,NDR2,28
same,KINOMEscan KIT (V559D),KIT (V559D),0
same,KINOMEscan RIPK5,RIPK5,2.8
same,KINOMEscan PRKG1,PRKG1,100
same,KINOMEscan ZAP70,ZAP70,25
same,KINOMEscan FLT3 (K663Q),FLT3 (K663Q),31
same,KINOMEscan MET (M1250T),MET (M1250T),46
same,KINOMEscan INSRR,INSRR,100
same,KINOMEscan LRRK2,LRRK2,21
same,KINOMEscan PLK4,PLK4,18
same,KINOMEscan LCK,LCK,0.05
same,KINOMEscan RIPK2,RIPK2,0.1
same,KINOMEscan PKNB (M. tuberculosis),PKNB (M. tuberculosis),6.6
same,KINOMEscan ALK,ALK,1.6
same,KINOMEscan TNK2,TNK2,0.15
same,KINOMEscan BRAF,BRAF,26
same,KINOMEscan HIPK3,HIPK3,2.6
same,KINOMEscan ROCK2,ROCK2,89
same,KINOMEscan TESK1,TESK1,0
same,KINOMEscan DMPK2,DMPK2,1.6
same,KINOMEscan S6K1,S6K1,72
same,KINOMEscan AKT2,AKT2,100
same,KINOMEscan DRAK1,DRAK1,96
same,KINOMEscan PYK2,PYK2,15
same,KINOMEscan AMPK-alpha1,AMPK-alpha1,33
same,KINOMEscan TLK2,TLK2,92
same,KINOMEscan RSK3 (Kin.Dom.2-C-terminal),[1],67
same,KINOMEscan YANK2,YANK2,1.8
same,KINOMEscan TTK,TTK,47
same,KINOMEscan ABL1 (M351T)-phosphorylated,[2],0.55
same,KINOMEscan DDR2,DDR2,1.6
same,KINOMEscan PRKR,PRKR,73
same,KINOMEscan JNK1,JNK1,23
same,KINOMEscan SRPK3,SRPK3,70
same,KINOMEscan CSNK1A1,CSNK1A1,100

# From US11725011B2, “Bicyclic urea kinase inhibitors and uses thereof” (The Broad Institute, Inc., priority 2016, dated 2023)
